Reference: patent publication US10208071B2, “Use of agonists of formyl peptide receptor 2 for treating ocular inflammatory diseases” (Allergan, Inc., priority 2013, dated 2019)
Like-named read-outs stand apart in the source and are kept apart here.

Biological target: FPR2 (Homo sapiens (Human), UniProt P25090)
Test: FLIPR Ca+2 response, HEK-Gα16 cells stably expressing the human FPR2 receptor (Table 4)
Assay type: cell-based
Conditions: for FPR2 (efficacy): efficacy in parentheses
Protocol: FLIPR: HEK-Gα16 cells stably expressing the human FPR2 receptor was utilized. Cells were plated into 384-well poly-D-lysine coated plates at a density of 18,000 cells per well one day prior to use. The growth media was DMEM medium supplemented with 10% fetal bovine serum (FBS), 1% antibiotic-antimycotic, 50 μg/ml hygromycin, and 400 μg/ml geneticin. On the day of the experiment, the cells were washed twice with Hank's Balanced Salt Solution supplemented with 20 mM HEPES (HBSS/hepes buffer). The cells were then dye loaded with 2 μM Fluo-4 diluted in the HBSS/Hepes buffer and incubated at 37° C. for 40 minutes. Extracellular dye was removed by washing the cell plates four times prior to placing the plates in the FLIPR (Fluorometric Imaging Plate Reader, Molecular Devices). Ligands were diluted in HBSS/Hepes buffer and prepared in 384-well microplates. Data for Ca^+2 responses were obtained in relative fluorescence units.

Chain of FPR2 (P25090 whole entry): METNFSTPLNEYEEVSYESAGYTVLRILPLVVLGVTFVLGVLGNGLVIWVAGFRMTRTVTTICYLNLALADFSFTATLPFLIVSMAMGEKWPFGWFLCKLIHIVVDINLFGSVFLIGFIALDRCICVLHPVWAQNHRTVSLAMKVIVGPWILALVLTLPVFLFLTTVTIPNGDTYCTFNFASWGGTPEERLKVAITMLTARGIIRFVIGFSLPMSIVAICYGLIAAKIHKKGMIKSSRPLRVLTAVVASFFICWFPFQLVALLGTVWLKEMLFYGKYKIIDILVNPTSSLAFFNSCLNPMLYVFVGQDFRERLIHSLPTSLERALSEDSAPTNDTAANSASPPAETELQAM

Row | SMILES | EC50 | FPR2 (efficacy) | EC50 (unit inferred)
1 | CSc1ccc(NC(=O)Nc2ccc3c(c2)C(=O)N(CCc2c[nH]cn2)C(c2ccc(Cl)nc2)C3)cc1 (centres unmarked) [Compound 28, 1-{3-(6-chloropyridin-3-yl)-2-[2-(1H-imidazol-4-yl)ethyl]-1-oxo-1,2,3,4-tetrahydroisoquinolin-7-yl}-3-[4-(methylsulfanyl)phenyl]urea] | – | nM (0.89) | –
2 | O=C(Nc1ccc(Br)cc1)N[C@@H](Cc1ccccc1)C(=O)NCCO [Compound 58, (2S)-2-{[(4-bromophenyl)carbamoyl]amino}-N-(2-hydroxyethyl)-3-phenylpropanamide] | 7 nM | nM (0.86) | –
3 | N#Cc1ccc(C2Cc3ccc(NC(=O)Nc4ccc(I)cc4)cc3C(=O)N2CCCN)cc1 (centres unmarked) [Compound 43, 1-[2-(3-aminopropyl)-3-(4-cyanophenyl)-1-oxo-1,2,3,4-tetrahydroisoquinolin-7-yl]-3-(4-iodophenyl)urea] | 13.7 nM | nM (0.94) | –
4 | CCC(CC)(NC(=O)Nc1ccc(Br)cc1)C(=O)NCC(=O)O [Compound 113] | 18.7 nM | nM (1.0) | –
5 | CCOP(=O)(CNC(=O)[C@@H](NC(=O)Nc1ccc(Br)cc1)[C@@H](C)CC)OCC [Compound 114, diethyl ({[(2S,3S)-2-{[(4-bromophenyl)carbamoyl]amino}-3-methylpentanoyl]amino}methyl)phosphonate] | 2.9 nM | nM (1.0) | –
6 | O=C(Nc1ccc(Br)cc1F)N[C@@H](Cc1ccccc1)C(=O)NCCO [Compound 71, (2S)-2-{[(4-bromo-2-fluorophenyl)carbamoyl]amino}-N-(2-hydroxyethyl)-3-phenylpropanamide] | 15.6 nM | nM (0.98) | –
7 | CSc1ccc(NC(=O)Nc2ccc3c(c2)C(=O)N(CCc2c[nH]cn2)C(c2ccco2)C3)cc1 (centres unmarked) [Compound 23, 1-{3-(furan-2-yl)-2-[2-(1H-imidazol-4-yl)ethyl]-1-oxo-1,2,3,4-tetrahydroisoquinolin-7-yl}-3-[4-(methylsulfanyl)phenyl]urea] | – | nM (0.83) | –
8 | CC(C)C[C@H](NC(=O)Nc1ccc(Br)cc1)C(=O)NCP(=O)(OC(C)C)OC(C)C [Compound 131, dipropan-2-yl ({[(2S)-2-{[(4-bromophenyl)carbamoyl]amino}-4-methylpentanoyl]amino}methyl)phosphonate] | – | nM (1.0) | –
9 | CC(C)C[C@H](NC(=O)Nc1ccc(Br)cc1F)C(=O)NCC(N)=O [Compound 84, (2S)-N-(2-amino-2-oxoethyl)-2-{[(4-bromo-2-fluorophenyl)carbamoyl]amino}-4-methylpentanamide] | 4.5 nM | nM (0.95) | –
10 | CC(C)C[C@H](NC(=O)Nc1ccc(Br)cc1)C(=O)NC(C)(C)C(=O)O [Compound 6, 2-{[(2S)-2-{[(4-bromophenyl)carbamoyl]amino}-4-methylpentanoyl]amino}-2-methylpropanoic acid] | – | (0.91) | 1.66 nM
11 | CCOP(=O)(CCNC(=O)CC1(C(C)C)NC(=O)N(NC(=O)Nc2ccc(Br)cc2)C1=O)OCC (centres unmarked) [Compound 152, diethyl [2-({[1-{[(4-bromophenyl)carbamoyl]amino}-2,5-dioxo-4-(propan-2-yl)imidazolidin-4-yl]acetyl}amino)ethyl] phosphonate] | 11 nM | nM (1.0) | –
12 | CCC1(CCc2ccccc2C(=O)OC)NC(=O)N(NC(=O)Nc2ccc(Br)cc2)C1=O (centres unmarked) [Compound 141, methyl 2-[2-(1-{[(4-bromophenyl)carbamoyl]amino}-4-ethyl-2,5-dioxoimidazolidin-4-yl)ethyl]benzoate] | 10.3 nM | nM (0.92) | –
13 | O=C(O)CCNC(=O)[C@H](Cc1ccccc1)NC(=O)Nc1ccc(Br)cc1 [Compound 56, 3-{[(2S)-2-{[(4-bromophenyl)carbamoyl]amino}-3-phenylpropanoyl]amino} propanoic acid] | – | nM (0.98) | –
14 | CSc1ccc(NC(=O)Nc2ccc3c(c2)C(=O)N(CCc2c[nH]cn2)C(c2ccc(Cl)cn2)C3)cc1 (centres unmarked) [Compound 32, 1-{3-(5-chloropyridin-2-yl)-2-[2-(1H-imidazol-4-yl)ethyl]-1-oxo-1,2,3,4-tetrahydroisoquinolin-7-yl}-3-[4-(methylsulfanyl)phenyl]urea] | – | nM (0.91) | –
15 | CCOP(=O)(CNC(=O)[C@H](CC(C)C)NC(=O)Nc1ccc(SC)cc1)OCC [Compound 138, diethyl ({[(2S)-4-methyl-2-({[4-(methylsulfanyl)phenyl]carbamoyl}amino)pentanoyl]amino}methyl)phosphonate] | 3.5 nM | nM (0.91) | –
16 | CCC[C@H](NC(=O)[C@H](CC(C)C)NC(=O)Nc1ccc(Br)cc1)C(=O)OC(C)(C)C [Compound 100, tert-butyl (2S)-2-{[(2S)-2-{[(4-bromophenyl)carbamoyl]amino}-4-methylpentanoyl]amino} pentanoate] | – | nM (1.0) | –
17 | O=C(Nc1ccc(I)cc1)N[C@@H](Cc1ccccc1)C(=O)O [Compound 51, (2S)-2-{[(4-iodophenyl)carbamoyl]amino}-3-phenylpropanoic acid] | – | nM (1.0) | –
18 | CSc1ccc(NC(=O)N[C@@H](CC(C)C)C(=O)O)cc1 [Compound 128, (2S)-4-methyl-2-({[4-(methylsulfanyl)phenyl]carbamoyl}amino)pentanoic acid] | 16.8 nM | nM (0.92) | –
19 | CC(C)C[C@H](NC(=O)Nc1ccc(Br)cc1)C(=O)NCc1cc(O)no1 [Compound 116, (2S)-2-{[(4-bromophenyl)carbamoyl]amino}-N-[(3-hydroxy-1,2-oxazol-5-yl)methyl]-4-methylpentanamide] | – | nM (1.0) | –
20 | CC[C@H](C)[C@H](NC(=O)Nc1ccc(Br)cc1)C(=O)NCC(N)=O [Compound 60, (2S,3S)-N-(2-amino-2-oxoethyl)-2-{[(4-bromophenyl)carbamoyl]amino}-3-methylpentanamide] | – | nM (0.91) | –
21 | CC[C@H](C)[C@H](NC(=O)Nc1ccc(Br)cc1)C(=O)NCC(C)=O [Compound 63] | 10.5 nM | nM (0.97) | –
22 | O=C(O)C1C(C(=O)Nc2ccc(I)cc2)C2C=CC1C21CC1 (centres unmarked) [Compound 11, 3-[(4-iodophenyl)carbamoyl] spiro[bicyclo[2.2.1]heptane-7,1′-cyclopropane]-5-ene-2-carboxylic acid] | 1.6 nM | nM (1.00) | –
23 | CC(C)C[C@H](NC(=O)Nc1ccc(Br)cc1F)C(=O)NCC(=O)O [Compound 7, {[(2S)-2-{[(4-bromo-2-fluorophenyl)carbamoyl]amino}-4-methylpentanoyl]amino}acetic acid] | – | (1.0) | 3.57 nM
24 | CC[C@H](C)[C@H](NC(=O)Nc1ccc(Br)cc1F)C(=O)O [Compound 5, (2S,3S)-2-{[(4-bromo-2-fluorophenyl)carbamoyl]amino}-3-methylpentanoic acid] | – | (0.96) | 31 nM

Further lines, results first:

Row | EC50 | FPR2 (efficacy) | EC50 (unit inferred) | SMILES
25 | 6.6 nM | nM (0.94) | – | CCOC(=O)CCC1(C(C)C)NC(=O)N(NC(=O)Nc2ccc(Br)cc2)C1=O (centres unmarked) [Compound 149, ethyl 3-[1-{[(4-bromophenyl)carbamoyl]amino}-2,5-dioxo-4-(propan-2-yl)imidazolidin-4-yl]propanoate]
26 | – | nM (1.0) | – | CC1(CCc2cccc(F)c2)NC(=O)N(NC(=O)Nc2ccc(Br)cc2)C1=O (centres unmarked) [Compound 83, 1-(4-bromophenyl)-3-{4-[2-(3-fluorophenyl)ethyl]-4-methyl-2,5-dioxoimidazolidin-1-yl}urea]
27 | – | nM (0.96) | – | CCC1(C(C)C)NC(=O)N(NC(=O)Nc2ccc(Br)cc2)C1=O (single isomer, unassigned; (+)) [Compound 66, (+)1-(4-bromophenyl)-3-[4-ethyl-2,5-dioxo-4-(propan-2-yl)imidazolidin-1-yl]urea]
28 | – | nM (1.0) | – | O=C(Nc1ccc(Br)cc1)NN1C(=O)NC(C2CC2)(C2CC2)C1=O [Compound 65, 1-(4-bromophenyl)-3-(4,4-dicyclopropyl-2,5-dioxoimidazolidin-1-yl)urea]
29 | 5.2 nM | nM (0.99) | – | CC1(CCc2ccco2)NC(=O)N(NC(=O)Nc2ccc(Br)cc2)C1=O (centres unmarked) [Compound 76, 1-(4-bromophenyl)-3-{4-[2-(furan-2-yl)ethyl]-4-methyl-2,5-dioxoimidazolidin-1-yl}urea]
30 | – | nM (0.93) | – | CC1(CCc2ccccc2O)NC(=O)N(NC(=O)Nc2ccc(Br)cc2)C1=O (centres unmarked) [Compound 109, 1-(4-bromophenyl)-3-{4-[2-(2-hydroxyphenyl)ethyl]-4-methyl-2,5-dioxoimidazolidin-1-yl}urea]
31 | – | (0.96) | 3 nM | CCC1(CCc2ccccc2)NC(=O)N(NC(=O)Nc2ccc(Br)cc2)C1=O (centres unmarked) [Compound 1, 1-(4-bromophenyl)-3-[4-ethyl-2,5-dioxo-4-(2-phenylethyl)imidazolidin-1-yl]urea]
32 | 11.5 nM | nM (0.98) | – | CCC1(CC)NC(=O)N(NC(=O)Nc2ccc(Br)cc2)C1=O [Compound 49, 1-(4-bromophenyl)-3-(4,4-diethyl-2,5-dioxoimidazolidin-1-yl)urea]
33 | – | nM (0.81) | – | CC(C)C[C@H](NC(=O)Nc1ccc(Br)cc1)C(=O)NCc1nnn[nH]1 [Compound 104, (2S)-2-{[(4-bromophenyl)carbamoyl]amino}-4-methyl-N-(1H-tetrazol-5-ylmethyl)pentanamide]
34 | – | nM (0.94) | – | CC1(CCc2cccs2)NC(=O)N(NC(=O)Nc2ccc(Br)cc2)C1=O (centres unmarked) [Compound 88, 1-(4-bromophenyl)-3-{4-methyl-2,5-dioxo-4-[2-(thiophen-2-yl)ethyl]imidazolidin-1-yl}urea]
